Measured values as given in ChEMBL document CHEMBL1201862, “PubChem BioAssay data set” (2004).
Counter-ions that a name gives are not always drawn.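 Cultured in 96-well plates, cells were exposed to test compound for 48 hours across five concentrations. Here, GI50 denotes the concentration required for 50% inhibition of growth.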 Activity calls are given as the source filed them. No stated cut-off is given here; in the data, active = GI50 up to about 1.1 µM and inactive = higher.

Assays:
Assay in all cases: DTP human tumour cell line panel, 48 h
DMS-273 = system: DMS-273
MCF7 = system: MCF7
DMS-114 = system: DMS-114
SR = system: SR
ACHN = system: ACHN
MDA-MB-231 = system: MDA-MB-231
MDA-N = system: MDA-N
RXF 631 = system: RXF 631
786-0 = system: 786-0

Measured: GI50

CC(=O)Oc1ccc(C2COc3cc(OC(C)=O)c(OC(C)=O)cc3C2)cc1 (stereo not drawn)
inactive: DMS-273 21.9 µM | MCF7 19 µM | DMS-114 4.44 µM

CC(C)OP(=O)(OC(C)C)c1ncn(-c2ccc([N+](=O)[O-])cc2)n1
inactive: DMS-273 > 100 µM | DMS-114 > 100 µM | SR > 100 µM | ACHN > 100 µM

CC(C)(CCCCC(C)(C)C1NC(=O)N1)C1NC(=O)N1
inactive: MCF7 > 10 µM | MDA-MB-231 > 10 µM | MDA-N > 10 µM | ACHN > 10 µM

COc1ccc(C(O)/C(=N\NC(N)=S)c2nc3ccc([N+](=O)[O-])cc3nc2O)cc1OC (stereo not drawn)
inactive: DMS-273 > 100 µM | RXF 631 > 100 µM | DMS-114 53.1 µM | ACHN > 100 µM | 786-0 > 100 µM

COc1cc2c(cc1OC)C1Cc3cc(OC)c(OC)cc3C(C2)O1
inactive: MCF7 > 100 µM | MDA-MB-231 29.1 µM | MDA-N > 100 µM | ACHN > 100 µM

CCCc1c(-c2ccccc2)[nH]c2ccccc2c1=O
inactive: MCF7 36.7 µM | MDA-MB-231 32.2 µM | SR > 100 µM | MDA-N 41.4 µM | ACHN 34.8 µM

ClCCCN1CCCCC1CCl (stereo not drawn)
inactive: DMS-273 62.2 µM | DMS-114 83 µM | SR 24.8 µM | ACHN 48.6 µM | 786-0 72.1 µM

N#CCCN(c1ccc(/C=N/c2cccc([N+](=O)[O-])c2)cc1)S(=O)(=O)c1ccccc1
inactive: DMS-273 > 100 µM | RXF 631 > 100 µM | DMS-114 > 100 µM | SR > 100 µM | 786-0 > 100 µM

C[C@]12CC[C@H]3[C@@H](CC=C4C[C@@H](O)CC[C@@]43C)[C@@H]1C/C(=C\c1ccc([N+](=O)[O-])cc1)[C@@H]2O
inactive: MCF7 6.71 µM | MDA-MB-231 7.93 µM | SR 8.41 µM | ACHN 11.6 µM | 786-0 10.9 µM

CN1CCc2[nH]c3ccccc3c2C1
inactive: DMS-273 > 100 µM | MCF7 > 100 µM | DMS-114 > 100 µM

CSCSCC(CO)NC(=O)/C(C)=C\c1c(C)[nH]c(=O)[nH]c1=O (stereo not drawn)
inactive: DMS-273 > 250 µM | MCF7 > 250 µM | DMS-114 > 250 µM

O=C(N[C@H]1c2ccsc2/C(=N/O)[C@H]1O)C(F)(F)F
inactive: MCF7 > 100 µM | MDA-MB-231 > 10 µM | SR > 100 µM | MDA-N > 100 µM

Cc1cc(C)c(NC(=O)/C=C/c2ccccc2)c(C)c1
inactive: MCF7 > 100 µM | SR 7.28 µM | ACHN 80.2 µM

CCCCn1cc[n+](-c2nc3ccccc3n2C)c1
inactive: DMS-273 > 100 µM | RXF 631 > 100 µM | DMS-114 > 100 µM | SR > 100 µM | ACHN > 100 µM

c1ccc(Nc2nnc(-c3nsc4ccccc34)o2)cc1
inactive: DMS-273 46.6 µM | DMS-114 > 100 µM | SR > 100 µM | ACHN 75.3 µM

CNCCC=C1c2ccccc2CCc2ccccc21 [NORTRIPTYLINE HYDROCHLORIDE]
inactive: MCF7 15.7 µM | MDA-MB-231 > 37 µM | SR 12.1 µM | MDA-N 15.6 µM | ACHN 16.6 µM | 786-0 14.6 µM
